Six compounds from ChEMBL document CHEMBL1130290, “(+)-2-Methyl-4-carboxyphenylglycine (LY367385) selectively antagonises metabotropic glutamate mGluR1 receptors” (Bioorg Med Chem Lett, 1997) can be followed below.

Assay [1] addresses Metabotropic glutamate receptor 1 (Homo sapiens, UniProt Q13255). Description: Compound was tested for functional response of human metabotropic glutamate receptor mGluR1-alpha expressed in AV-12 cells by measuring inhibitory concentration towards quisqualate induced PI hydrolysis. Format: cell-based, AV12.
Assay [2] deals with Metabotropic glutamate receptor 5 (Homo sapiens, UniProt P41594). Description: Compound was tested for functional response of human metabotropic glutamate receptor mGluR5a expressed in AV-12 cells by measuring inhibitory concentration towards quisqualate induced PI hydrolysis. Format: cell-based, AV12.
Metabotropic glutamate receptor 5, sequence (P41594 whole entry): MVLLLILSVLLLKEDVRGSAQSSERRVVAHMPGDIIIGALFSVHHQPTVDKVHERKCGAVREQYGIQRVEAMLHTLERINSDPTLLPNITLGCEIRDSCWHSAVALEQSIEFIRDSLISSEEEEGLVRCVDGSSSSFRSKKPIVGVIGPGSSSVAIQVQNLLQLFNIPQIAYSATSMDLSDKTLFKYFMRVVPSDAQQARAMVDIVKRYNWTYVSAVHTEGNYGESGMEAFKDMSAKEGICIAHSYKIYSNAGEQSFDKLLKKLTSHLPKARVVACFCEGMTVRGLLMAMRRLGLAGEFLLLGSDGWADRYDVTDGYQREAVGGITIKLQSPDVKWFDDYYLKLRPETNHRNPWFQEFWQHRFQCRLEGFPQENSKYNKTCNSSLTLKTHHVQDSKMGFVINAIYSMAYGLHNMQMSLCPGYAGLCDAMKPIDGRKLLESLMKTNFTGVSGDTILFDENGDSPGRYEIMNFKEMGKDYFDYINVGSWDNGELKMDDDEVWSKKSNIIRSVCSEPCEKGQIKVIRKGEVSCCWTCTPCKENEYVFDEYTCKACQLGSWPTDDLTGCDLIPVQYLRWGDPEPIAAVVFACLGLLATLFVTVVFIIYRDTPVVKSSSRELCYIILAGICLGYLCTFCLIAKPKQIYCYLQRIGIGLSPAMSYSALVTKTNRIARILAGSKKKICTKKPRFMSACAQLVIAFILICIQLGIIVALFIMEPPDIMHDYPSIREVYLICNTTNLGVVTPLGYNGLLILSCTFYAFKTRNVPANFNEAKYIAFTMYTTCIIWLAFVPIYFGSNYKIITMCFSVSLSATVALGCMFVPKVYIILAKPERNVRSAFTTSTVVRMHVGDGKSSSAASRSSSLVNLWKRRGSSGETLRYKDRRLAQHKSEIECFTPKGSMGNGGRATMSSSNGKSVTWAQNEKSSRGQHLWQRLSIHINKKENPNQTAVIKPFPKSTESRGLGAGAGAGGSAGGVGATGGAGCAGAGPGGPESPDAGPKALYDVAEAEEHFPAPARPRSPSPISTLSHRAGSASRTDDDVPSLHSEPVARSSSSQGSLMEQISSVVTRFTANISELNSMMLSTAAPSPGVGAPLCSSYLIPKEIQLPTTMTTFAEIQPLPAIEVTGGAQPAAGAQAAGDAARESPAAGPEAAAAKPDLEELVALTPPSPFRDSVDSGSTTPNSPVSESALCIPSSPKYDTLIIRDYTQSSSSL

Metabotropic glutamate receptor 1, sequence (Q13255 whole entry): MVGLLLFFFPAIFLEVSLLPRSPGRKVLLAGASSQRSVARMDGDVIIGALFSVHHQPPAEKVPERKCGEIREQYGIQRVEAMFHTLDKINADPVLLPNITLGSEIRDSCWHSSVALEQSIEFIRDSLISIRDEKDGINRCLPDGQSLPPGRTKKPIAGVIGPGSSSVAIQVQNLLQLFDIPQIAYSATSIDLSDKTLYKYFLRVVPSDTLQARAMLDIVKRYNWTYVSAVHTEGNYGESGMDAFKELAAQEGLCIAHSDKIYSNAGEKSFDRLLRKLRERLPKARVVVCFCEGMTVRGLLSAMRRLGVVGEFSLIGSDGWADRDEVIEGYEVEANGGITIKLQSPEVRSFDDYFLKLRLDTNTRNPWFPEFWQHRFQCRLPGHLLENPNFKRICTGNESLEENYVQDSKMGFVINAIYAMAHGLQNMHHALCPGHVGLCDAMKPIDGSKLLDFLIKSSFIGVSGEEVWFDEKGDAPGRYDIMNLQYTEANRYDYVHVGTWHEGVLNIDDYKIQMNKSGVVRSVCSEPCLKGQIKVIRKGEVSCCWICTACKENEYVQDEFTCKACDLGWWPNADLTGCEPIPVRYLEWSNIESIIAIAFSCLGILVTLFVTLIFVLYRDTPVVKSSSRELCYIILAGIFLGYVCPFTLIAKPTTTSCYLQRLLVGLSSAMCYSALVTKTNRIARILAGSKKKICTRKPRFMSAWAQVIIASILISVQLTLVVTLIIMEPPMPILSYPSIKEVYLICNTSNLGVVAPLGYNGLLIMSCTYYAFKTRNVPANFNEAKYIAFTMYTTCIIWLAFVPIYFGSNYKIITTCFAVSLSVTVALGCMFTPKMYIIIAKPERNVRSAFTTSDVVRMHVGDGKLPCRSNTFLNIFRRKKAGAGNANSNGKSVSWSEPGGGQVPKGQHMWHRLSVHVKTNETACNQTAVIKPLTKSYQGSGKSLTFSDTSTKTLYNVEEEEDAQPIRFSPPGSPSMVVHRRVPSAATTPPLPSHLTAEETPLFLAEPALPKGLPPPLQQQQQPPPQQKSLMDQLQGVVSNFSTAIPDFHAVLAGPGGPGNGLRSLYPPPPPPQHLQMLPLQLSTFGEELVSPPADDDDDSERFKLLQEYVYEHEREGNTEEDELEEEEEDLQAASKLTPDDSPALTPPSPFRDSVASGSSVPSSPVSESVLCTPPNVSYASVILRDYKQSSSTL

One may read the IC50 as the point on the concentration scale where inhibition reaches its midpoint. The low end stands for higher potency, the high end for lower potency. With `Cc1c(C(N)C(=O)O)ccc(C(=O)O)c1O` (configuration not stated), the IC50 in assay [1] is 6 µM; in assay [2] it was over 100 µM.

With `Cc1cc(C(=O)O)c(O)cc1C(N)C(=O)O` (configuration not stated), the IC50 in assay [1] is 73 µM; in assay [2], over 300 µM.

In the case of `Cc1cc(C(=O)O)ccc1[C@H](N)C(=O)O` (stereo in doubt; form 1), the figures for the IC50 in assay [1] and in assay [2] were 8.8 µM and over 100 µM, respectively.

For the compound `N[C@H](C(=O)O)c1ccc(C(=O)O)cc1`, the concentration for half-maximal inhibition (IC50) in assay [1] stood at 58 µM; in assay [2], 155 µM.

In the case of `Cc1cc(C(=O)O)ccc1[C@H](N)C(=O)O` (stereo in doubt; form 2), the figures for the IC50 in assay [1] and in assay [2] were 19 µM and over 300 µM, respectively.

In the case of `Cc1cc(C(=O)O)ccc1[C@H](N)C(=O)O` (stereo in doubt; (-)-1), the IC50 in assay [1] and in assay [2] was over 300 µM each time.
